ChEMBL document CHEMBL4376843 (J Med Chem, 2020)

Legend:
Carbonic anhydrase 9 = Carbonic anhydrase 9 (Homo sapiens, UniProt Q16790)
A549 [1] = test: cells; type: functional, cell-based; conditions: Homo sapiens, A549, 72 h
Description: Antiproliferative activity against human A549 cells measured after 72 hrs under normoxic condition by MTT assay

A549 [2] = test: cells; type: functional, cell-based; conditions: Homo sapiens, A549, 72 h; remark: listed apart in the source
Description: Antiproliferative activity against human A549 cells measured after 72 hrs under CoCl2-induced hypoxic condition by MTT assay

PC-3 [3] = test: cells; type: functional, cell-based; conditions: Homo sapiens, PC-3, 72 h
Description: Antiproliferative activity against human PC3 cells measured after 72 hrs under normoxic condition by MTT assay

PC-3 [4] = test: cells; type: functional, cell-based; conditions: Homo sapiens, PC-3, 72 h; remark: listed apart in the source
Description: Antiproliferative activity against human PC3 cells measured after 72 hrs under CoCl2-induced hypoxic condition by MTT assay

HCT-116 [5] = test: cells; type: functional, cell-based; conditions: Homo sapiens, HCT-116, 72 h
Description: Antiproliferative activity against human HCT116 cells measured after 72 hrs under normoxic condition by MTT assay

HCT-116 [6] = test: cells; type: functional, cell-based; conditions: Homo sapiens, HCT-116, 72 h; remark: listed apart in the source
Description: Antiproliferative activity against human HCT116 cells measured after 72 hrs under CoCl2-induced hypoxic condition by MTT assay

WI-38 = test: Cytotoxicty activity against human WI38 cells measured after 72 hrs by MTT assay; type: cell-based; conditions: WI-38, 72 h
HCT-116 [7] = test: Induction of apoptosis in human HCT116 cells assessed as downregulation of Bcl-2 expression at normoxic antiproliferative IC50 measured after 48 hrs by ELISA relative to control; type: functional
Carbonic anhydrase 1 = Carbonic anhydrase 1 (Homo sapiens, UniProt P00915)
Carbonic anhydrase 2 = Carbonic anhydrase 2 (Homo sapiens, UniProt P00918)
Carbonic anhydrase 4 = Carbonic anhydrase 4 (Homo sapiens, UniProt P22748)
Carbonic anhydrase 7 = Carbonic anhydrase 7 (Homo sapiens, UniProt P43166)
Chain of Carbonic anhydrase 7 (P43166 whole entry): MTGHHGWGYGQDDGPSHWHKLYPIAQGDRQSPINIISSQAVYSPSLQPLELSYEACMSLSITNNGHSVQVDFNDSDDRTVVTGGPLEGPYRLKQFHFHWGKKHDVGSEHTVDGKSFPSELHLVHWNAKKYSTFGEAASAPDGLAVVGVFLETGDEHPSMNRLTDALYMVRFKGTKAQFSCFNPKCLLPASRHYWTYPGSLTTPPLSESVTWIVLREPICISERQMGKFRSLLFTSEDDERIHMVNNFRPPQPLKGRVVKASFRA

Chain of Carbonic anhydrase 1 (P00915 whole entry): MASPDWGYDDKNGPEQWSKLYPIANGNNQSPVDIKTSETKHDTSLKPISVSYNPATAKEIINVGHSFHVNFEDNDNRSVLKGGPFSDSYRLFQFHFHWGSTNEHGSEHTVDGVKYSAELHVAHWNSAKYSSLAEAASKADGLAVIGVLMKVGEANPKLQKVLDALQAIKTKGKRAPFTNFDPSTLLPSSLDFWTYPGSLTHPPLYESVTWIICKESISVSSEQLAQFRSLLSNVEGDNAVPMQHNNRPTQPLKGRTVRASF
Chain of Carbonic anhydrase 4 (P22748 whole entry): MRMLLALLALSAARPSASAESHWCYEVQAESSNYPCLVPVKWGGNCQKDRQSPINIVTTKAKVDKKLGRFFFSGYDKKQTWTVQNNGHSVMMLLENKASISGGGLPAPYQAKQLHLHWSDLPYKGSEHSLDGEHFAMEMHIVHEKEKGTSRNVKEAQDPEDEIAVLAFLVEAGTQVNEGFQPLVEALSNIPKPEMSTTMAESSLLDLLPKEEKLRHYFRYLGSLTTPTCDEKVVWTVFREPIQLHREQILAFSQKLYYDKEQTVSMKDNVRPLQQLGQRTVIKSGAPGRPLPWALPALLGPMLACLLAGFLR

Compound	Ki (Carbonic anhydrase 9) [nM]	IC50 (A549 [1]) [nM]	IC50 (A549 [2]) [nM]	IC50 (PC-3 [3]) [nM]	IC50 (PC-3 [4]) [nM]	IC50 (HCT-116 [5]) [nM]	IC50 (HCT-116 [6]) [nM]	Ki (Carbonic anhydrase 1) [nM]	Ki (Carbonic anhydrase 2) [nM]	Ki (Carbonic anhydrase 4) [nM]	Ki (Carbonic anhydrase 7) [nM]	IC50 (WI-38) [nM]	Activity (HCT-116 [7]) [%]
Cc1ccc(C)c2c1NC(=O)NS2(=O)=O	368							2540	2190	1430	1900		
O=C1Nc2c(C(=O)O)cccc2S(=O)(=O)N1	91.2							5780	2440	380	2800		
O=C1Nc2ccc(C(=O)O)cc2S(=O)(=O)N1	98.7							> 10000	6780	76.1	4960		
O=C1NS(=O)(=O)c2cccc3c2N1CC3	273							6860	1060	3890	1280		
CN1C(=O)NS(=O)(=O)c2cc(Cl)ccc21	189							> 10000	2340	5880	3240		
O=C1Nc2c(ccc3ccccc23)S(=O)(=O)N1	60.2							2070	484	2670	3950		
CN1C(=O)NS(=O)(=O)c2ccccc21	139	19900	16300	23800	16900	10900	7130	3410	853	3460	7510	40900	
COc1ccc2c(c1)S(=O)(=O)NC(=O)N2	35.8							3810	1920	1940	1360		
Cc1cc(C)c2c(c1)NC(=O)NS2(=O)=O	408							1920	2940	2690	1790		
O=C1Nc2ccc(Br)cc2S(=O)(=O)N1	31							4400	2360	1560	468		
O=C1Nc2c(Br)cccc2S(=O)(=O)N1	73.3							2320	527	854	620		
O=C1NS(=O)(=O)c2ccccc21 [SACCHARIN]								> 10000					

Further lines, with some results ahead:

Ki (Carbonic anhydrase 9) [nM]	IC50 (A549 [1]) [nM]	IC50 (A549 [2]) [nM]	IC50 (PC-3 [3]) [nM]	IC50 (PC-3 [4]) [nM]	IC50 (HCT-116 [5]) [nM]	IC50 (HCT-116 [6]) [nM]	Ki (Carbonic anhydrase 1) [nM]	Ki (Carbonic anhydrase 2) [nM]	Ki (Carbonic anhydrase 4) [nM]	Ki (Carbonic anhydrase 7) [nM]	Compound	IC50 (WI-38) [nM]	Activity (HCT-116 [7]) [%]
78.7	3530	2680	14000	12200	1300	1500	866	150	675	466	O=C1Nc2ccccc2S(=O)(=O)N1	39900	59
63.9							969	144	1230	975	Cc1cccc2c1NC(=O)NS2(=O)=O		
88.1							1890	3020	452	2560	O=C1Nc2ccc(O)cc2S(=O)(=O)N1		
58.4							547	140	461	126	O=C1Nc2c(F)cccc2S(=O)(=O)N1		
28.2	10900	7350	16200	3520	5260	7570	930	685	1030	389	O=C1Nc2c(Cl)cccc2S(=O)(=O)N1	36600	
45.8							1070	872	897	956	Cc1ccc2c(c1)S(=O)(=O)NC(=O)N2		
19.1	18300	15000	12000	6530	3860	2730	1290	534	709	436	O=C1Nc2ccc(F)cc2S(=O)(=O)N1	125000	42
56.9							1860	1140	1750	1180	O=C1Nc2ccc(Cl)cc2S(=O)(=O)N1		
25.8	4770	5740	6310	820	3850	4180	1270	764	1640	691	Cc1cc(C)c2c(c1)S(=O)(=O)NC(=O)N2	23500	
